Each structure is given as a SMILES string.

PD-L1 His protein / PD-1 Fc protein, sequence (Q9NZQ7 19-238 limits assumed): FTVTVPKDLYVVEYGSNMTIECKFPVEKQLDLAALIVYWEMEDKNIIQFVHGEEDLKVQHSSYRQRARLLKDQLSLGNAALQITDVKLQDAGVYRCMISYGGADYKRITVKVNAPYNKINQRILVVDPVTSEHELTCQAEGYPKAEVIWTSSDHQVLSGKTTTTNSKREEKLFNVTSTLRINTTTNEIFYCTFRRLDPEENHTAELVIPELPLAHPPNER

This assay has as its target PD-L1 His protein / PD-1 Fc protein (Homo sapiens, UniProt Q9NZQ7). Description: HTRF Assay (PD-1/PD-L1 interaction). In kind it is binding. Particulars: PD-L1 His 6 nM, PD-1 Fc 6 nM. A digest of the protocol: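 Compounds tested from 20 μM down to 0.001 μM (3-fold) against 6 nM PD-L1 His and 6 nM PD-1 Fc, 15 min room temperature incubation. Detection after 1 h at room temperature with Tb cryptate anti-6HIS and XL665 anti-human IgG reagents (mixture at 0.35 nM and 6.7 nM), HTRF signal.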
Background: In TR-FRET formats the signal depends on donor and acceptor labels being close together.
`COC(=O)C[C@H](O)CNCc1ccc(-c2cccc(-c3cccc(-c4ccn5c(=O)c(CNC[C@@H](O)CC(=O)OC)cnc5c4)c3Cl)c2Cl)nc1OC` [Example 231, Methyl (3S)-4-[[6-[2-chloro-3-[2-chloro-3-[3-[[[(2S)-2-hydroxy-4-methoxy-4-oxo-butyl]amino]methyl]-4-oxo-pyrido[1,2-a]pyrimidin-8-yl]phenyl]phenyl]-2-methoxy-3-pyridyl]methylamino]-3-hydroxy-butanoate] gave a half-maximal inhibitory concentration (IC50) of 120 nM.

`COc1nc(-c2cccc(-c3cccc(-c4ccn5c(=O)c(CN(C)[C@@H](C)C(=O)O)cnc5c4)c3Cl)c2Cl)ccc1CNC[C@@H]1CCC(=O)N1` [Example 190, N-((8-(2,2′-Dichloro-3′-(6-methoxy-5-(((((S)-5-oxopyrrolidin-2-yl)methyl)amino)methyl)pyridin-2-yl)-[1,1′-biphenyl]-3-yl)-4-oxo-4H-pyrido[1,2-a]pyrimidin-3-yl)methyl)-N-methyl-L-alanine] registered an IC50 of 0.1 nM. With `COc1cc(-c2cccc(-c3cccc(-c4ccn5c(=O)c(CNC[C@@H]6CCC(=O)N6)cnc5c4)c3Cl)c2Cl)cnc1CNC[C@@H]1CCC(=O)N1` [Example 360, 8-(2,2′-Dichloro-3′-(5-methoxy-6-(((((S)-5-oxopyrrolidin-2-yl)-methyl)-amino)methyl)-pyridin-3-yl)-[1,1′-biphenyl]-3-yl)-3-(((((S)-5-oxopyrrolidin-2-yl)methyl)amino)methyl)-4H-pyrido[1,2-a]pyrimidin-4-one] the figure was 0.7 nM; with `COc1nc(-c2cccc(-c3cccc(-c4ccn5c(=O)c(CN(C)CC(=O)O)cnc5c4)c3Cl)c2Cl)ccc1CNC[C@@H]1CCC(=O)N1` [Example 187, (S)—N-((8-(2,2′-Dichloro-3′-(6-methoxy-5-((((5-oxopyrrolidin-2-yl)methyl)amino)methyl)pyridin-2-yl)-[1,1′-biphenyl]-3-yl)-4-oxo-4H-pyrido[1,2-a]pyrimidin-3-yl)methyl)-N-methylglycine], 0.1 nM. With `COc1nc(-c2cccc(-c3cccc(-c4ccn5c(=O)c(CNC[C@@H]6CCC(=O)N6)cnc5c4)c3Cl)c2Cl)ccc1CNCCNC(C)=O` [Example 103, (S)—N-(2-(((6-(2,2′-Dichloro-3′-(4-oxo-3-((((5-oxopyrrolidin-2-yl)methyl)amino)methyl)-4H-pyrido[1,2-a]pyrimidin-8-yl)-[1,1′-biphenyl]-3-yl)-2-methoxypyridin-3-yl)methyl)amino)ethyl)acetamide], 5 nM corresponded to half-maximal inhibition (IC50). Compared with the last compound, the IC50 is about 50-fold higher. `CNC(=O)CNCc1cnc2cc(-c3cccc(-c4cccc(-c5ccc(CNC[C@@H]6CCC(=O)N6)c(OC)n5)c4Cl)c3Cl)ccn2c1=O` [Example 202, (S)-2-(((8-(2,2′-Dichloro-3′-(6-methoxy-5-((((5-oxopyrrolidin-2-yl)methyl)amino)methyl)pyridin-2-yl)-[1,1′-biphenyl]-3-yl)-4-oxo-4H-pyrido[1,2-a]pyrimidin-3-yl)methyl)amino)-N-methylacetamide] showed an IC50 of 0.1 nM. Against the preceding compound, the IC50 is about 50-fold lower. Compound `Cc1c(COc2cc(OCc3cncc(C#N)c3)c(CNCCO)cc2Cl)cccc1-c1cccc(-n2cnc3cc(CNCCO)ccc3c2=O)c1` [Example 5, 5-((4-Chloro-2-(((2-hydroxyethyl)amino)methyl)-5-((3′-(7-(((2-hydroxyethyl)amino)methyl)-4-oxoquinazolin-3(4H)-yl)-2-methyl-[1,1′-biphenyl]-3-yl)methoxy)phenoxy)methyl)nicotinonitrile] yielded an IC50 of 150 nM. This IC50 is about 1500-fold higher than that of the compound before. Then `COc1nc(-c2cccc(-c3cccc(-c4ccn5c(=O)c(CN6CCCC6CO)cnc5c4)c3Cl)c2Cl)ccc1CNC[C@@H]1CCC(=O)N1` (stereo partly drawn) [Example 153, 8-(2,2′-Dichloro-3′-(6-methoxy-5-(((((S)-5-oxopyrrolidin-2-yl)methyl)amino)methyl)pyridin-2-yl)-[1,1′-biphenyl]-3-yl)-3-((2-(hydroxymethyl)pyrrolidin-1-yl)methyl)-4H-pyrido[1,2-a]pyrimidin-4-one], with 0.8 nM; and `Cc1c(COc2cc(OCc3cncc(C#N)c3)c(CNCCO)cc2Cl)cccc1-c1cccc(-c2ccc3c(c2)C(=O)N(C)CC(=O)N3CCNCCO)c1C` [Example 8, 5-((4-Chloro-5-((3′-(1-(2-((2-hydroxyethyl)amino)ethyl)-4-methyl-2,5-dioxo-2,3,4,5-tetrahydro-1H-benzo[e][1,4]diazepin-7-yl)-2,2′-dimethyl-[1,1′-biphenyl]-3-yl)methoxy)-2-(((2-hydroxyethyl)amino)methyl)phenoxy)methyl)nicotinonitrile], with 0.8 nM; and `COc1nc(-c2cccc(-c3cccc(-c4cc5c(=O)n(C)c(CNCCO)nn5c4)c3Cl)c2Cl)cc(Cl)c1CNC[C@@H]1CCC(=O)N1` [Example 491, (S)-6-(2,2′-Dichloro-3′-(4-chloro-6-methoxy-5-((((5-oxopyrrolidin-2-yl)methyl)amino)methyl)pyridin-2-yl)-[1,1′-biphenyl]-3-yl)-2-(((2-hydroxyethyl)amino)methyl)-3-methylpyrrolo[2,1-f][1,2,4]triazin-4(3H)-one], with 0.7 nM. Then `COc1nc(-c2cccc(-c3cccc(-c4ccn5c(=O)c(CNC[C@@H]6CCC(=O)N6)cnc5c4)c3Cl)c2Cl)ccc1CN1CC(C(C)(C)O)C1` [Example 112, (S)-8-(2,2′-Dichloro-3′-(5-((3-(2-hydroxypropan-2-yl)azetidin-1-yl)methyl)-6-methoxypyridin-2-yl)-[1,1′-biphenyl]-3-yl)-3-((((5-oxopyrrolidin-2-yl)methyl)amino)methyl)-4H-pyrido[1,2-a]pyrimidin-4-one], with 2.9 nM; and `COc1nc(-c2cccc(-c3cccc(-c4ccn5c(=O)c(CNCCNC(C)=O)cnc5c4)c3Cl)c2Cl)ccc1CNC[C@@H]1CCC(=O)N1` [Example 81, (S)—N-(2-(((8-(2,2′-Dichloro-3′-(6-methoxy-5-((((5-oxopyrrolidin-2-yl)methyl)amino)methyl)pyridin-2-yl)-[1,1′-biphenyl]-3-yl)-4-oxo-4H-pyrido[1,2-a]pyrimidin-3-yl)methyl)amino)ethyl)acetamide], with 8.3 nM. As to `COc1nc(-c2cccc(-c3cccc(-c4ccc5nc(CNCCO)cn5n4)c3Cl)c2Cl)ccc1CNC[C@@H]1CCC(=O)N1` [Example 352, (5S)-5-[[[6-[2-Chloro-3-[2-chloro-3-[2-[(2-hydroxyethylamino)methyl]imidazo[1,2-b]pyridazin-6-yl]phenyl]phenyl]-2-methoxy-3-pyridyl]methylamino]methyl]pyrrolidin-2-one], half-maximal inhibition (IC50) required 0.5 nM. In turn, `COc1nc(-c2cccc(-c3cccc(-c4ccn5c(=O)c(CNC[C@@H]6CCC(=O)N6)cnc5c4)c3Cl)c2Cl)ccc1CN1CC2(C(=O)O)CCC1CC2` [Example 122, (S)-2-((6-(2,2′-Dichloro-3′-(4-oxo-3-((((5-oxopyrrolidin-2-yl)methyl)amino)methyl)-4H-pyrido[1,2-a]pyrimidin-8-yl)-[1,1′-biphenyl]-3-yl)-2-methoxypyridin-3-yl)methyl)-2-azabicyclo[2.2.2]octane-4-carboxylic acid] registered an IC50 of 0.8 nM. Against the preceding compound, the IC50 is about 1.6-fold higher. With `COc1nc(-c2cccc(-c3cccc(-c4cc5c(=O)n(C)c(CNCC6(F)CC6)nn5c4)c3Cl)c2Cl)ccc1CNC[C@@H]1CCC(=O)N1` [Example 463, (S)-6-(2,2′-Dichloro-3′-(6-methoxy-5-((((5-oxopyrrolidin-2-yl)methyl)amino)methyl)pyridin-2-yl)-[1,1′-biphenyl]-3-yl)-2-((((1-fluorocyclopropyl)methyl)amino)methyl)-3-methylpyrrolo[2,1-f][1,2,4]triazin-4(3H)-one] the figure was 36 nM; with `COc1cc(-c2cccc(-c3cccc(-c4ccn5c(=O)c(CNC[C@@H]6CCC(=O)N6)cnc5c4)c3Cl)c2Cl)nc(Cl)c1CNC[C@@H]1CCC(=O)N1` [Example 431, 8-(2,2′-Dichloro-3′-(6-chloro-4-methoxy-5-(((((S)-5-oxopyrrolidin-2-yl)methyl)-amino)-methyl)pyridin-2-yl)-[1,1′-biphenyl]-3-yl)-3-(((((S)-5-oxopyrrolidin-2-yl)methyl)amino)methyl)-4H-pyrido[1,2-a]pyrimidin-4-one], 180 nM. In turn, `COc1nc(-c2cccc(-c3cccc(-c4cc5c(=O)n(C)c(CNC6CC7(CCC(=O)N7)C6)nn5c4)c3Cl)c2Cl)ccc1CNC[C@@H]1CCC(=O)N1` (stereo partly drawn) [Example 449, 6-[2-Chloro-3-[2-chloro-3-[6-methoxy-5-[[[(2S)-5-oxopyrrolidin-2-yl]methylamino]methyl]-2-pyridyl]phenyl]phenyl]-3-methyl-2-[[(6-oxo-5-azaspiro[3.4]octan-2-yl)amino]methyl] pyrrolo[2,1-f][1,2,4]triazin-4-one] came in with an IC50 of 450 nM. In the case of `COc1nc(-c2cccc(-c3cccc(-c4ccc5c(n4)CCCC5NC[C@@H]4CCC(=O)N4)c3Cl)c2Cl)ccc1CNC[C@@H]1CCC(=O)N1` (mixture of isomers) [Example 235, (5S)-5-((((6-(2,2′-Dichloro-3′-(5-((((S)-5-oxopyrrolidin-2-yl)methyl)amino)-5,6,7,8-tetrahydroquinolin-2-yl)-[1,1′-biphenyl]-3-yl)-2-methoxypyridin-3-yl)methyl)amino)methyl)pyrrolidin-2-one], the IC50 was determined as 1 nM. Against the preceding compound, the IC50 is about 450-fold lower.

Turning to `Cc1c(-c2ccn3c(=O)c(CNC[C@@H]4CCC(=O)N4)cnc3c2)cccc1-c1cccc(-c2ccc(CNC[C@@H]3CCC(=O)N3)c(Cl)c2)c1Cl` [Example 67, 8-(2′,3″-Dichloro-2-methyl-4″-(((((S)-5-oxopyrrolidin-2-yl)methyl)amino)methyl)-[1,1′:3′,1″-terphenyl]-3-yl)-3-(((((S)-5-oxopyrrolidin-2-yl)methyl)amino)methyl)-4H-pyrido[1,2-a]pyrimidin-4-one], the IC50 turned out to be 3.5 nM. `COc1nc(-c2cccc(-c3cccc(-c4ccn5c(=O)c(CN[C@H]6C[C@@](C)(O)C6)c(C)nc5c4)c3Cl)c2Cl)ccc1CNC[C@@H]1CCC(=O)N1` [Example 229, 8-(2,2′-Dichloro-3′-(6-methoxy-5-(((((S)-5-oxopyrrolidin-2-yl)methyl)amino)methyl)pyridin-2-yl)-[1,1′-biphenyl]-3-yl)-3-((((1s,3s)-3-hydroxy-3-methylcyclobutyl)amino)methyl)-2-methyl-4H-pyrido[1,2-a]pyrimidin-4-one] registered an IC50 of 6.9 nM.

The term IC50 denotes the concentration at which inhibition is half-maximal.

Values taken from patent US20230143612A1 (Arbutus Biopharma Corporation, priority 2020, published 2023).
